# “Also recorded” adds a separate entry of the source.
# Columns and labels:
# [1] = system: mouse embryonic stem cells; test: Influence on mouse embryonic stem cell morphology (inverted phase contrast microscope); format: cell-based; conditions: ten days
# Experimental: The embryonic stem cells were evenly grown in a 24-well plate, a normal group was set after the cells adhered on the wall: the normal group was cultured under the condition of differentiation culture medium (after removal of leukemia inhibitory factor from normal culture medium); solvent control group: the group was cultured after DMSO was added under the culture condition of differentiation culture medium; experimental group: the group was cultured after 2,3-dihydro-3-hydroxymethyl-6-amino-[1,4]-benzoxazine with the concentration of 0.5 μM˜40 μM was added under the culture condition of differentiation culture medium. The culture conditions: 37° C., CO2 incubator box for cultivation. The culture medium should be replaced everyday in a timing mode, the morphological changes were observed under an inverted phase contrast microscope until the tenth day.
# (§1) The embryonic stem cells were evenly grown in a 24-well plate according to density of 2×10^4 cells/well, DMEM (high glucose) containing leukemia inhibitory factor, L-glutamine, streptomycin, β-mercaptoethanol, non-essential amino acids, nucleotides and 15% PBS was used for culturing for 24 hours, the waste liquid was discarded after the cells adhered on the wall, and the cells were cleaned with 1×PBS. A normal group was set: the normal group was cultured under the culture condition that leukemia inhibitory factor was removed; solvent control group: the group was cultured after DMSO was added under the culture condition that leukemia inhibitory factor was removed; experimental group: the group was cultured after 2,3-dihydro-3-hydroxymethyl-6-amino-[1,4]-benzoxazine with the concentration of 0.5 μM, 1 μM, 5 μM, 10 μM, 20 μM, 30 μM and 40 μM was added under the culture condition that leukemia inhibitory factor was removed. The culture conditions: 37° C., CO2 incubator box for cultivation. The culture medium should be replaced everyday in a timing mode, and the cells were continuously cultured for ten days and then were observed under an inverted phase contrast microscope.
# [2] = system: vascular endothelial cell marker Flk-1 in embryonic stem cells; test: Detection of vascular endothelial cell marker Flk-1 (immunohistochemistry, laser scanning confocal microscopy); format: cell-based, mouse; conditions: induction for 10 days
# Experimental: The embryonic stem cells which were induced with 2,3-dihydro-3-hydroxymethyl-6-amino-[1,4]-benzoxazine with the concentration of 0.5 μM˜40 μM for 5 days and 10 days were evenly grown in 48-well plate and cultured for 24 hours in CO2 incubation chamber at 37° C., after the cells adhered on the wall, immunohistochemistry and laser scanning confocal microscopy were used for observing the expression of endothelial cell markers—Flk-1 The normal group was set: the group was cultured in under the culture condition of differentiation culture medium; solvent control group: the group was cultured after DMSO was added under the culture condition of differentiation culture medium; experimental group: the group was cultured after 2,3-dihydro-3-hydroxymethyl-6-amino-[1,4]-benzoxazine with the concentration of 0.5 μM˜40 μM was added under the culture condition of differentiation culture medium.
# as §1, with “48-well” for “24-well”, “and cultured for 24 hours with” for “according to density of 2×10^4 cells/well,”, “FBS,” for “PBS was used for culturing for 24 hours,”, “The” for “A”, “the” for “the normal”, “cultivation.” for “cultivation. The culture medium should be replaced everyday in a timing mode, and the cells were continuously cultured for ten days and then were observed under an inverted phase contrast microscope.”
# [3] = system: vascular endothelial marker CD31 in embryonic stem cells; test: Detection of vascular endothelial cell marker CD31 (Western blot); format: cell-based, mouse; conditions: induction for 10 days
# Experimental: The embryonic stem cells induced by 2,3-dihydro-3-hydroxymethyl-6-amino-[1,4]-benzoxazine with the concentration of 0.5 μM˜40 μM for ten days were cracked, and total cellular protein was distilled. The solvent control group was set: the group was cultured after DMSO was added under the culture condition of differentiation culture medium; experimental group: the group was cultured after 2,3-dihydro-3-(hydroxymethyl)-6-Amino-[1,4]-benzoxazine with the concentration of 0.5 μM˜40 μM under the culture condition of differentiation culture medium. The extracted embryonic stem cells were used for Western blot experiment to detect the expression of vascular endothelial marker CD31.
# The embryonic stem cells were evenly grown in a 6-well plate according to the density of 2×10^4 cells/well, and cultured for 24 hours with DMEM (high glucose) containing leukemia inhibitory factor, L-glutamine, streptomycin, β-mercaptoethanol, non-essential amino acids, nucleotides and 15% FBS, the waste liquid was discarded after the cells adhered on the wall, and the cells were cleaned with 1×PBS. The normal group was set: the group was cultured under the culture condition that leukemia inhibitory factor was removed; solvent control group: the group was cultured after DMSO was added under the culture condition that leukemia inhibitory factor was removed; experimental group: the group was cultured after 2,3-dihydro-3-hydroxymethyl-6-amino-[1,4]-benzoxazine with the concentration of 0.5 μM, 1 μM, 5 μM, 10 μM, 20 μM, 30 μM and 40 μM was added under the culture condition that leukemia inhibitory factor was removed. The culture conditions: 37° C., CO2 incubator box for cultivation. The culture medium should be replaced everyday, and the cells should be continuously cultured for ten days. The total protein of each group of cells was distilled with cell lysate. The protein samples were denatured for 5 min at 100° C., glue was removed then, the protein was transferred on the PVDF film after completion, the PBS/t solution containing 5% skimmed milk powder was used for sealing for one hour at room temperature. The PBS/t solution containing 3% bovine serum almbumin was used for diluting the primary anti-body (1:5000), and incubated overnight with the PVDF film containing target protein at 4° C. PBS/t was used for dipping the film twice 5 min each time. PBS was used for diluting the secondary antibody (1:5000) and the cells were incubated for one hour at room temperature, the film was dipped with PSB for three times and 5 min each time. ECL chromogenic reagent was evenly coated on the PVDF film containing target protein ad reacted for five minutes, excessive Chromogenic reagent was removed, and the cells were placed together with the film in a dark box for five minutes to finish film colour development.
# embryonic stem cells [4] = test: Detection of in vitro vascularization on Matrigel; format: cell-based, mouse; conditions: cells induced for ten days
# Experimental: The embryonic stem cells after induction for ten days were seeded in 24-well cell culture plate paved with Matrigel in advance, the detection culture system was replaced for the cells and placed at 37° C., the cells were cultured at CO2 incubator for 4 hours to 72 hours, and the vascularization conditions were regularly observed. The normal group was set: embryonic stem cells which were cultured for ten days under the culture conditions of differentiation culture medium; solvent control group: embryonic stem cells which were cultured for ten days after DMSO was added under the culture condition of differentiation culture medium. Experimental group: embryonic stem cells which were cultured for ten days after 2,3-dihydro-3-hydroxymethyl-6-amino-[1,4]-benzoxazine was added under the culture condition of differentiation culture medium.
# The embryonic stem cells were evenly grown in a 24-well plate according to the density of 2×10^4 cells/well and cultured for 24 hours with DMEM (high glucose) containing leukemia inhibitory factor, L-glutamine, streptomycin, β-mercaptoethanol, non-essential amino acids, nucleotides and 15% FBS, the waste liquid was discarded after the cells adhered on the wall, and the cells were cleaned with 1×PBS. […]
# embryonic stem cells [5] = test: Function detection of phagocytosis of Dil-Ac-LDL; format: cell-based, mouse; conditions: cells induced for ten days, six hours with Dil-Ac-LDL
# Experimental: The embryonic stem cells after induction for ten days were seeded in 24-well paved with gelatin, placed at 37° C., and cultured in CO2 incubator. After the cells adhered on the wall, the Dil-Ac-LDL diluted with medium culture was added into the culture plates, placed at 37° C., and cultured in CO2 incubator for six hours. The normal group was set: embryonic stem cells which were cultured for ten days under the culture condition of differentiation culture medium; Solvent control group: the embryonic stem cells which were cultured for ten days after DMSO was added under the culture condition of differentiation culture medium; experimental group: the embryonic stem cells which were cultured for ten days after 2,3-dihydro-3-hydroxy methyl-6-amino-[1,4]-benzoxazine with the concentration of 0.5 μM˜40 μM was added under the culture condition of differentiation culture medium. […]
# The embryonic stem cells were evenly grown in a 24-well plate according to the density of 2×10^4 cells/well and cultured for 24 hours with DMEM (high glucose) containing leukemia inhibitory factor, L-glutamine, streptomycin, β-mercaptoethanol, non-essential amino acids, nucleotides and 15% FBS, the waste liquid was discarded after the cells adhered on the wall, and the cells were cleaned with 1×PBS. […] The conditions of phagocytosing Dil-Ac-LDL were detected with laser confocal microscopy.
# [6] = system: mouse embryonic stem cells; test: Induction of mouse embryonic stem cells to differentiate to vascular endothelial cells (overall conclusion); format: cell-based; conditions: for differentiation of mouse embryonic stem cells to vascular endothelial cells: five to ten days, differentiation culture medium
# Source text: Cell biology and molecular biology methods were adopted to study and validate the function of the 2,3-dihydro-3-hydroxymethyl-6-amino-[1,4]-benzoxazine of the invention to induce embryonic stem cells to differentiate to vascular endothelial cells with the following experiments.
# [7] = 10 μM, listed as 2 3-dihydro-3-hydroxymethyl-6-amino-[1,4]-benzoxazine
smiles,measurement,setting,value
"Nc1ccc2c(c1)NC(CO)CO2 (centres unmarked) [2,3-dihydro-3-hydroxymethyl-6-amino-[1,4]-benzoxazine]",cell morphology change to vascular endothelial cell form,"[1]; 10 μM, differentiation culture medium without leukemia inhibitory factor",significant changes; also recorded: prominently prompt the embryonic stem cells to show the vascular endothelial form
same,cell morphology change versus normal and solvent control groups,"[1]; 1˜20 μM, differentiation culture medium without leukemia inhibitory factor",changed compared with the cell morphology of the control group; also recorded: changed compared with the cell form of the control group
same,cell form changes of other treatment groups,[1]; other concentrations of the 0.5 μM˜40 μM range (outside 1˜20 μM),relatively weak
same,expression of vascular endothelial cell marker Flk-1,[2]; 1 μM˜20 μM,increased
same,expression of vascular endothelial cell marker Flk-1,[2]; 10 μM,more obvious
same,expression of vascular endothelial cell marker Flk-1,[2]; [7],stronger Flk-1 expression
same,expression of vascular endothelial cell marker CD31,"[3]; 1 μM˜20 μM, versus solvent control, listed as 2 3-dihydro-3-hydroxymethyl-6-amino-[1,4]-benzoxazine",increased
same,expression of vascular endothelial cell marker CD31,"[3]; 1 μM˜20 μM, versus solvent control, listed as 2,3-dihydro-3-(hydroxymethyl)-6-amino-[1,4]-benzoxazine",increased expression of CD31
same,expression of vascular endothelial cell marker CD31,[3]; 10 μM,more significant
same,expression of vascular endothelial cell marker CD31,[3]; [7],stronger CD31 expression
same,formation of vessel-like structures on Matrigel,embryonic stem cells [4]; 10 μM,particularly prominent vessel-like structures; also recorded: prominently form blood vessels in vitro; also recorded: prominently form blood vessels on Matrigel
same,formation of vessel-like structures on Matrigel,embryonic stem cells [4]; 1˜20 μM,form varying degrees of cavity-like vessel-like structures
same,phagocytosis of Dil-Ac-LDL,embryonic stem cells [5]; 1 μM˜20 μM,can phagocytose Dil-Ac-LDL
same,phagocytosis of Dil-Ac-LDL,embryonic stem cells [5]; 10 μM,particularly evident; also recorded: prominent effect of phagocytosing Dil-Ac-LDL; also recorded: prominently phagocytose Dil-Ac-LDL
same,optimal concentration for inducing differentiation to vascular endothelial cells,[6],10 µM
same,differentiation of mouse embryonic stem cells to vascular endothelial cells,[6]; 1 μM˜20 μM,prominently promote differentiation of mouse embryonic stem cells to vascular endothelial cells
same,differentiation of mouse embryonic stem cells to vascular endothelial cells,[6]; 10 μM,particularly prominent
